ChEMBL document CHEMBL1149322, “Carbonic anhydrase inhibitors. Inhibition of mitochondrial isozyme V with aromatic and heterocyclic sulfonamides” (J Med Chem, 2004)

How the values were obtained:
Carbonic anhydrase 4 = target: T1, Carbonic anhydrase 4 (Bos taurus, UniProt Q95323)
T1 sequence (Q95323 whole entry): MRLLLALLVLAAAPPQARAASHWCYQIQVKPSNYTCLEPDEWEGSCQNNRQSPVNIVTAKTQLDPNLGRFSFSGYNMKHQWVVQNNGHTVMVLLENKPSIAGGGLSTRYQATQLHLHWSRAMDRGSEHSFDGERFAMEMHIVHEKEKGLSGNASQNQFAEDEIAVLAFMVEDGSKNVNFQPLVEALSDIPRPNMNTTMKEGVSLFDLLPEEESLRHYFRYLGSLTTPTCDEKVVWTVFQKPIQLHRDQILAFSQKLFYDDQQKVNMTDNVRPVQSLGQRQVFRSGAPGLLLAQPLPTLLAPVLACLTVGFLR

Carbonic anhydrase 2 = Carbonic anhydrase 2 (Homo sapiens, UniProt P00918)
Carbonic anhydrase 1 = Carbonic anhydrase 1 (Homo sapiens, UniProt P00915)
Chain of Carbonic anhydrase 1 (P00915 whole entry): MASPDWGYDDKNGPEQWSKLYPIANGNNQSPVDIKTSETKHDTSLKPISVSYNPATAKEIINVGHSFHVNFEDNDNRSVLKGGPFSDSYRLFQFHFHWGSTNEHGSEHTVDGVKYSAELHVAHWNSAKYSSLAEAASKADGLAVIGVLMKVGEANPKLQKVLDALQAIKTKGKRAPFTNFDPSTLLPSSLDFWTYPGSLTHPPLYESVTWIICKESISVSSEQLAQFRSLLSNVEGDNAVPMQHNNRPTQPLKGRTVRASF

Row | Compound | Ki (Carbonic anhydrase 4) | Ki (Carbonic anhydrase 2) | Ki (Carbonic anhydrase 1)
1 | CCN[C@H]1CC(CCCOC)S(=O)(=O)c2sc(S(N)(=O)=O)cc21 (stereo not given in full) | 45 nM |  | 
2 | CC(=O)Nc1ccc(S(=O)(=O)Nc2nnc(S(N)(=O)=O)s2)cc1Br | 4 nM | 2 nM | 
3 | NS(=O)(=O)c1ccc(CCNC(=O)c2cc3ccccc3oc2=O)cc1 |  |  | 66 nM
4 | NS(=O)(=O)c1ccc(CNS(=O)(=O)c2ccccc2)cc1 | 64 nM |  | 
5 | CC(=O)Nc1ccc(S(=O)(=O)Nc2nnc(S(N)(=O)=O)s2)cc1Cl | 4 nM | 1 nM | 5 nM
6 | CC(C)(C)C(=O)Nc1nnc(S(N)(=O)=O)s1 | 185 nM |  | 645 nM
7 | NS(=O)(=O)c1ccc(CCNS(=O)(=O)c2ccccc2)cc1 | 39 nM | 28 nM | 69 nM
8 | NS(=O)(=O)c1ccc(NS(=O)(=O)c2ccc([N+](=O)[O-])cc2)cc1 | 22 nM | 10 nM | 31 nM
9 | NS(=O)(=O)c1ccc(CNC(=O)c2cc3ccccc3oc2=O)cc1 |  |  | 69 nM
10 | NS(=O)(=O)c1ccc(NS(=O)(=O)c2ccccc2)cc1 | 85 nM |  | 
11 | NS(=O)(=O)c1ccc(NS(=O)(=O)c2ccc(F)cc2)cc1 | 15 nM | 9 nM | 40 nM
12 | NS(=O)(=O)c1ccc(NC(=O)c2cc3ccccc3oc2=O)cc1 |  |  | 74 nM
13 | NS(=O)(=O)c1ccc(/N=C\c2ncc[nH]2)cc1 | 130 nM | 120 nM | 1000 nM
14 | Cn1nc(S(N)(=O)=O)s/c1=N/C(=O)CCCCC(F)(F)C(F)(F)F | 8 nM |  | 270 nM
15 | NS(=O)(=O)c1ccc(CCNC(=O)Nc2ccc(Cl)c(Cl)c2)cc1 | 20 nM | 13 nM | 12 nM
16 | CC(=O)Nc1ccc(S(=O)(=O)Nc2nnc(S(N)(=O)=O)s2)cc1F |  | 1 nM | 6 nM
17 | Cn1nc(S(N)(=O)=O)s/c1=N/C(=O)c1ccccc1 | 174 nM | 17 nM | 850 nM
18 | NS(=O)(=O)c1nnc(NC(=O)c2ccccc2)s1 | 163 nM |  | 900 nM
19 | CC(=O)Nc1ccc(S(=O)(=O)Nc2nnc(S(N)(=O)=O)s2)cc1 | 8 nM | 3 nM | 
20 | Cn1nc(S(N)(=O)=O)s/c1=N/C(=O)c1ccco1 | 30 nM | 6 nM | 290 nM

The next lines start with the values.

Row | Ki (Carbonic anhydrase 4) | Ki (Carbonic anhydrase 2) | Ki (Carbonic anhydrase 1) | Compound
21 | 980 nM | 63 nM | 14200 nM | CCCCCC(=O)Nc1ccc(S(N)(=O)=O)cc1
22 | 2550 nM |  |  | CC(C)(C)C(=O)Nc1ccc(S(N)(=O)=O)cc1
23 | 119 nM | 75 nM | 187 nM | CC(=O)Nc1ccc(S(=O)(=O)NCCc2ccc(S(N)(=O)=O)cc2)cc1
24 | 2840 nM |  |  | CC(C)C(=O)Nc1ccc(S(N)(=O)=O)cc1
25 | 176 nM |  |  | NS(=O)(=O)c1ccc(NC(=O)c2ccccc2)cc1
26 | 2540 nM |  |  | CCCC(=O)Nc1ccc(S(N)(=O)=O)cc1
27 | 2630 nM |  |  | CCC(=O)Nc1ccc(S(N)(=O)=O)cc1
28 | 140 nM |  | 800 nM | NS(=O)(=O)c1ccc(CNC(=O)Nc2ccccc2)cc1
29 | 600 nM |  | 950 nM | NS(=O)(=O)c1ccc(NC(=O)CCCCC(F)(F)C(F)(F)F)cc1
30 | 2370 nM |  |  | CCCCC(=O)Nc1ccc(S(N)(=O)=O)cc1
31 | 10 nM | 2 nM | 250 nM | NS(=O)(=O)c1nnc(NC(=O)CCCCC(F)(F)C(F)(F)F)s1
32 | 2100 nM |  |  | NS(=O)(=O)c1ccc(NC(=O)C(F)(F)F)cc1
33 | 2850 nM | 246 nM | 21400 nM | CC(=O)Nc1ccc(S(N)(=O)=O)cc1
